Test results as given in US20110229412A1, “ANIMAL MODEL OF CENTRAL NEUROPATHIC PAIN AND MEHTODS OF MAKING AND USING THE SAME” (priority 2008, published 2011).
Entries after “also recorded” stand apart in the source; their conditions may differ.

System: rats having DREZs avulsed at T13/L1
Test: Allodynia (von Frey test) in rat T13/L1 DREZ avulsion model of central neuropathic pain
Format: in vivo
Experimental: Rats were anesthetized using isoflurane. Under aseptic condition, the skin was incised in the midline along the posterior thoracolumbar region. The paravertebral muscles were retracted laterally to expose the posterior aspect of the spinal laminae. Laminectomies were performed and the dura mater then incised along the midline to expose the dorsal rootlets of T13 and L1. The dorsal rootlets of T13 and L1 were then avulsed out of the spinal cord on the left side using micronstrumentation. Hemostasis was obtained and a layer of gelfoam placed over the dura. The wound was closed in layers. Perioperative antibiotics were administered in prophylaxis against infection. Subject rats were tested for allodynia of the hindpaws with the von Frey hair test, beginning day one post surgery and continuing daily over the subsequent four weeks. Rat animal model was generated similar to above. In one experiment, DREZ avulsion was unilateral (FIG. 2). In one experiment, DREZ avulsion was bilateral (FIG. 3). Ibudilast was delivered intrathecally daily in a corn oil carrier, with sham controls receiving only the corn oil. […] AV411 was administered to animals avulsed at the T13 and L1 dorsal root entry zones. The compound AV411 was administered to animals subject to the T13 and L1 hind paws. […] The reversal begins after 5-6 injections and continues to reverse behavior until day 33. The contralateral paw began to resolve at day 28 and the ipsilateral paw was still sensitive at day 33. […] Response thresholds on the von Frey test were recorded prior to and across a timecourse after avulsion surgery. Beginning on Day 12 post-surgery, rats (n=4/group) received once daily s.c. injections of either the glial activation inhibitor AV411/Ibudilast (Sigma; 5-mg/kg or 10-mg/kg) or equivolume vehicle (corn oil; 0.5-ml/kg). Daily drug treatment and intermittent behavioral testing continued through 33 days after surgery.

CC(C)C(=O)c1c(C(C)C)nn2ccccc12 [AV411, 2-methyl-1-(2-propan-2-ylpyrazolo[1,5-a]pyridin-3-yl)propan-1-one]
onset of reversal of allodynia (once daily s.c. 5-mg/kg or 10-mg/kg from Day 12 post-surgery): 5-6 injections
effect on allodynia induced by unilateral T13/L1 dorsal root avulsion (von Frey test) (once daily s.c. 5-mg/kg or 10-mg/kg from Day 12 post-surgery through day 33): reversed allodynia; also recorded: induces bilateral mechanical allodynia; also recorded: reverses bilateral allodynia
comparison of the 5 mg and 10 mg dose on allodynia (once daily s.c. 5-mg/kg vs 10-mg/kg): not differences between the 5 mg and 10 mg dose
day until which reversal of behavior continues (once daily s.c. from Day 12 post-surgery, days after surgery): ≤ 33 days
effect on allodynia in the model (unilateral (FIG. 2) or bilateral (FIG. 3) DREZ avulsion, delivered intrathecally daily in corn oil carrier): decreases allodynia
